% of control, % of inhibition and dTM data for ten compounds are collected here from ChEMBL document CHEMBL5465560, “Selectivity Literature for EUbOPEN Chemogenomic Library” (2024).

For assay [1], the target named is T1, Mitogen-activated protein kinase kinase kinase 5 (Homo sapiens) (UniProt Q99683).
T1 sequence (whole entry): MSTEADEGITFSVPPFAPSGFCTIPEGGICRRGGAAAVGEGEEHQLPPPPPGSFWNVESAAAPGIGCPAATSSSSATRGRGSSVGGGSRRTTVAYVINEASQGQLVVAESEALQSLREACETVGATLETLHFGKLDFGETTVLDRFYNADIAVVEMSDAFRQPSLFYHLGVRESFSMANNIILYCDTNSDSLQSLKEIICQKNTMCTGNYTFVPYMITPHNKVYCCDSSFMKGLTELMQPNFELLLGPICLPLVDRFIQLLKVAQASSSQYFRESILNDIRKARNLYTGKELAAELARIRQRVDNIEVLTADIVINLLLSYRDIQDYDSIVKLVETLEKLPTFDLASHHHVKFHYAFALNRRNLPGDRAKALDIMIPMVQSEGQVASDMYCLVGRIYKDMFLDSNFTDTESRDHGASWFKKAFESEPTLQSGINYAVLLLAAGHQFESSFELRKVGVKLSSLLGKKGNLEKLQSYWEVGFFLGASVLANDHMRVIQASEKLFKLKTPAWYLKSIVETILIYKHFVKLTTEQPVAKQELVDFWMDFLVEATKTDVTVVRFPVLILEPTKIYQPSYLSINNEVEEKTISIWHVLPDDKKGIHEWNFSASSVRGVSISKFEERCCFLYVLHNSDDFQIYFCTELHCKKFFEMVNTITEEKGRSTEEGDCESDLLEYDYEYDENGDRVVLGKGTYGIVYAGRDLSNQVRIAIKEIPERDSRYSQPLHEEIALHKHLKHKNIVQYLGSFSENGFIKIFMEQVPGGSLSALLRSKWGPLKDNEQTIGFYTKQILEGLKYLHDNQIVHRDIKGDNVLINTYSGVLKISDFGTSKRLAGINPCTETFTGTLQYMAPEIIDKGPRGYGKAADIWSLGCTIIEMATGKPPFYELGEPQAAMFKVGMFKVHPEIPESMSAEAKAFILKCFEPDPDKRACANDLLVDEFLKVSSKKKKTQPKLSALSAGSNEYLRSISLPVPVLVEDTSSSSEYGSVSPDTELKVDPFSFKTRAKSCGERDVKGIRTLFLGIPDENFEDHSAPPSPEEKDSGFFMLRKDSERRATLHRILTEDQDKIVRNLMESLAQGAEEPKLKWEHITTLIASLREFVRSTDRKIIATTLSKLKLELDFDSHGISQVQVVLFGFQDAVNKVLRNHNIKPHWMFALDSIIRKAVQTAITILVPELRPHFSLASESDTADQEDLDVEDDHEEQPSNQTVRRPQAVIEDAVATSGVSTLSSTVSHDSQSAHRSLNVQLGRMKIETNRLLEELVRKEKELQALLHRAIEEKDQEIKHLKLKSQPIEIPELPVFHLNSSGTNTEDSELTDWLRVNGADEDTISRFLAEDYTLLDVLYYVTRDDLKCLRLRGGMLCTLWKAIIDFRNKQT
The assay is described as follows: Selectivity interaction (KinomeScan (DiscoverX)) EUB0000090b MAP3K5. To be noted: at 1 µM.

The target of assay [2] is Tyrosine-protein kinase receptor UFO (Homo sapiens) (UniProt P30530). The assay is described as follows: Selectivity interaction (KinomeScan (DiscoverX)) EUB0000607a AXL. The settings on record: at 10 µM.
Tyrosine-protein kinase receptor UFO (Homo sapiens), sequence (P30530 whole entry): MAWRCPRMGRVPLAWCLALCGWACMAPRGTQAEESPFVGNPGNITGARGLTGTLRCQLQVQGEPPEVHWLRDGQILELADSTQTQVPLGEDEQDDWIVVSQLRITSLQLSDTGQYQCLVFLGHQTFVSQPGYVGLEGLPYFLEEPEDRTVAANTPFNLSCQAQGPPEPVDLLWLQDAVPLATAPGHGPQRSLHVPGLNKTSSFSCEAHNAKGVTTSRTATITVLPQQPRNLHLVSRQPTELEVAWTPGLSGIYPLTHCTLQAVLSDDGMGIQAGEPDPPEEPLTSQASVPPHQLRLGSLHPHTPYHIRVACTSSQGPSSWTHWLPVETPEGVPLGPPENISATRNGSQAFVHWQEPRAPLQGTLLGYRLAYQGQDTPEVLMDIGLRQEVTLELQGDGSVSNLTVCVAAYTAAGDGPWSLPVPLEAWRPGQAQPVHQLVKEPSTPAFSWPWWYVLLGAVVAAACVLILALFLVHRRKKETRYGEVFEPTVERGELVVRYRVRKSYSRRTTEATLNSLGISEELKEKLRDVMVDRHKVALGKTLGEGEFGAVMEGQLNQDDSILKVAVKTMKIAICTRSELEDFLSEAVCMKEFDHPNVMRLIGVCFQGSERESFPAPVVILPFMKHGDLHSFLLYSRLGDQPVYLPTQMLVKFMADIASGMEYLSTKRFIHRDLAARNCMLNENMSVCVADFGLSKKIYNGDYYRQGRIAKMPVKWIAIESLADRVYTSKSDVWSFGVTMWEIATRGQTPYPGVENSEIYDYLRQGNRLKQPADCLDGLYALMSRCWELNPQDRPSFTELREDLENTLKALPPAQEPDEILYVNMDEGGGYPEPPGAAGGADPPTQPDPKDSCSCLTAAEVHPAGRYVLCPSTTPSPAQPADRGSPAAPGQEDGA
Assay [3] has as its target CDK4/Cyclin D3 (Homo sapiens) (UniProt P11802+P30281). The assay is described as follows: (§1) Selectivity interaction (KinomeScan (DiscoverX)) EUB0001079a CDK4. The format is protein-complex assay. To be noted: at 1 µM.
Assay [4] deals with Cyclin-dependent kinase 4/cyclin D1 (Homo sapiens) (UniProt P11802+P24385). Described as §1. The format is protein-complex assay. To be noted: at 1 µM.
Assay [5] concerns the target Protein kinase C alpha type (Homo sapiens, UniProt P17252). The assay is described as follows: Selectivity interaction (Kinase panel (literature)) EUB0001199aCl PRKCA. The settings on record: at 1 µM.
In assay [6] the target is 5-hydroxytryptamine receptor 1B (Homo sapiens) (UniProt P28222). The assay is described as follows: Selectivity interaction (Safety Panel 44tm (Eurofins)) EUB0000162b HTR1B. The settings on record: at 10 µM.
5-hydroxytryptamine receptor 1B (Homo sapiens), sequence (P28222 whole entry): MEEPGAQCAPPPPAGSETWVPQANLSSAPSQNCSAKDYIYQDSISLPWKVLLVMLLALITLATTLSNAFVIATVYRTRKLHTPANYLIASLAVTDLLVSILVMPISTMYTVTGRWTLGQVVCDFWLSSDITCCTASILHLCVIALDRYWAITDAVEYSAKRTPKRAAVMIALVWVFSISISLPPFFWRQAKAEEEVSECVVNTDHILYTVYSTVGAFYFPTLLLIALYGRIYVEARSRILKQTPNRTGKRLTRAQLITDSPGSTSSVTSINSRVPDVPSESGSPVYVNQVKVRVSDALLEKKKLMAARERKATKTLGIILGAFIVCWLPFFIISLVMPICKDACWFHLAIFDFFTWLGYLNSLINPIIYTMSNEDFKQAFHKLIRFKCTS
The target in assay [7] is Tyrosine-protein kinase JAK2 (Homo sapiens, UniProt O60674). The assay is described as follows: Selectivity interaction (Kinase panel (Invitrogen)) EUB0000639a JAK2. To be noted: at 200 nM.
Tyrosine-protein kinase JAK2, sequence (O60674 whole entry): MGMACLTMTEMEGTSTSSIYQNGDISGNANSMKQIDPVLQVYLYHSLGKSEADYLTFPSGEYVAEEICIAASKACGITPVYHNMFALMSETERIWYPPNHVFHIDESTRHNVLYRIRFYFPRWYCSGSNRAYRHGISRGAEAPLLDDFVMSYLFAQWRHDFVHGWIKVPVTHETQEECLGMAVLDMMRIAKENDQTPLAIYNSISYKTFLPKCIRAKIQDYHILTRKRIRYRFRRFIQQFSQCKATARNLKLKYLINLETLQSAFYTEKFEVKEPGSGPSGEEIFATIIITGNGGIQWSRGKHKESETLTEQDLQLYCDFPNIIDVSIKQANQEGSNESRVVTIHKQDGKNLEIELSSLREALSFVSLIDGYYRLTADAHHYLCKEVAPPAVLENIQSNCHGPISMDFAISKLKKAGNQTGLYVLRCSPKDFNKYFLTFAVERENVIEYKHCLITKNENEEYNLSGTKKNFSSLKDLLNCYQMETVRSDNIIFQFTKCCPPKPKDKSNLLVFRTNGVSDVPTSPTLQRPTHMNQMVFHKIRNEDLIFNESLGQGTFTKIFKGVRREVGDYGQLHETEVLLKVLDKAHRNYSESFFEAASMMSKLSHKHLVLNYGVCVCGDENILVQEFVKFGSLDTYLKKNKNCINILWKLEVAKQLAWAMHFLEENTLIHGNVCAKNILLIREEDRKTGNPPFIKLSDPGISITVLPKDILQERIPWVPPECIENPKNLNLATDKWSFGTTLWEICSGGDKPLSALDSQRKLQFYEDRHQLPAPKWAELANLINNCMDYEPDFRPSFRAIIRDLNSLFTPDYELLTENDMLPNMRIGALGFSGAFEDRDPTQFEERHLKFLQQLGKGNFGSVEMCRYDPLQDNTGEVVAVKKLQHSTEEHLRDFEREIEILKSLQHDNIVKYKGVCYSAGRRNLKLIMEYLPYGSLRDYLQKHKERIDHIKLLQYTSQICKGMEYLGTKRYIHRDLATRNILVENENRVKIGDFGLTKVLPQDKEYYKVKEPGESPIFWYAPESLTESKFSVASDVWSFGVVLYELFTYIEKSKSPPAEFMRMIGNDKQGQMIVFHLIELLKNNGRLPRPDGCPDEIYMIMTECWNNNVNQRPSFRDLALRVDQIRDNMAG
Assay [8] has as its target T2, Dual specificity mitogen-activated protein kinase kinase 4 (Homo sapiens) (UniProt P45985).
T2 sequence (whole entry): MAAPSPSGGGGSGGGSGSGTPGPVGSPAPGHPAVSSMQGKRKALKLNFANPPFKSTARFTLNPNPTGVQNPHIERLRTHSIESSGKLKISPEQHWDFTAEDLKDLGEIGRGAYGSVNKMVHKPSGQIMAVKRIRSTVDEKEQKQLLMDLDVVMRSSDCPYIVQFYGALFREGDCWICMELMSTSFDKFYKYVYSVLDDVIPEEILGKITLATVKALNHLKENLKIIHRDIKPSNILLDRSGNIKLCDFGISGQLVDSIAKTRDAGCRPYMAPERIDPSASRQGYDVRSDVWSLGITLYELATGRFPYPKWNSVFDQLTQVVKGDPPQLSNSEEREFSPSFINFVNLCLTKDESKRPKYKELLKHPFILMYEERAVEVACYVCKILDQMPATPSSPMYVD
To be noted: at 10 µM.

Assay [9] addresses RAC-gamma serine/threonine-protein kinase (Homo sapiens, UniProt Q9Y243). Kind of assay: Selectivity interaction (KinomeScan (DiscoverX)) EUB0001049a AKT3. To be noted: at 1 µM.
Assay [10] deals with T3, Serine/threonine-protein kinase RIO1 (Homo sapiens) (UniProt Q9BRS2).
T3 sequence (whole entry): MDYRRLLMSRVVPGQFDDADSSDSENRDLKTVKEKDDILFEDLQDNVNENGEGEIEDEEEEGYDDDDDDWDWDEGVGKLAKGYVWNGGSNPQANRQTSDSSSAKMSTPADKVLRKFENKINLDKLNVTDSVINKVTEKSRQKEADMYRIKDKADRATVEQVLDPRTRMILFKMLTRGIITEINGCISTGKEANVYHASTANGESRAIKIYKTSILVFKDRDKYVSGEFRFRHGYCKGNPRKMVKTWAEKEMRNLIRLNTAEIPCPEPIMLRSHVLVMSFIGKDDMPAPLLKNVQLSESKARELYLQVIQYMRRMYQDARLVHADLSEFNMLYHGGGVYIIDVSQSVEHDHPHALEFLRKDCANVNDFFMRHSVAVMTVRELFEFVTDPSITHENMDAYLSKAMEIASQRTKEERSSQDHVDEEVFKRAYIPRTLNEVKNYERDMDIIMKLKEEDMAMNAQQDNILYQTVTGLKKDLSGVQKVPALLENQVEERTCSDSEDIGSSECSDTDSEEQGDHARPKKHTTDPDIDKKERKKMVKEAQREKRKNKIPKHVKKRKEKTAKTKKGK
Kind of assay: Selectivity interaction (Kinase panel (DSF assay)) EUB0001559a RIOK1.

For assay [11], the target named is Ribosomal protein S6 kinase alpha-1 (Homo sapiens, UniProt Q15418). The assay is described as follows: Selectivity interaction (Upstate Kinase Profiler service (Millipore)) EUB0000056c RPS6KA1. To be noted: at 1 µM.
Ribosomal protein S6 kinase alpha-1, sequence (Q15418 whole entry): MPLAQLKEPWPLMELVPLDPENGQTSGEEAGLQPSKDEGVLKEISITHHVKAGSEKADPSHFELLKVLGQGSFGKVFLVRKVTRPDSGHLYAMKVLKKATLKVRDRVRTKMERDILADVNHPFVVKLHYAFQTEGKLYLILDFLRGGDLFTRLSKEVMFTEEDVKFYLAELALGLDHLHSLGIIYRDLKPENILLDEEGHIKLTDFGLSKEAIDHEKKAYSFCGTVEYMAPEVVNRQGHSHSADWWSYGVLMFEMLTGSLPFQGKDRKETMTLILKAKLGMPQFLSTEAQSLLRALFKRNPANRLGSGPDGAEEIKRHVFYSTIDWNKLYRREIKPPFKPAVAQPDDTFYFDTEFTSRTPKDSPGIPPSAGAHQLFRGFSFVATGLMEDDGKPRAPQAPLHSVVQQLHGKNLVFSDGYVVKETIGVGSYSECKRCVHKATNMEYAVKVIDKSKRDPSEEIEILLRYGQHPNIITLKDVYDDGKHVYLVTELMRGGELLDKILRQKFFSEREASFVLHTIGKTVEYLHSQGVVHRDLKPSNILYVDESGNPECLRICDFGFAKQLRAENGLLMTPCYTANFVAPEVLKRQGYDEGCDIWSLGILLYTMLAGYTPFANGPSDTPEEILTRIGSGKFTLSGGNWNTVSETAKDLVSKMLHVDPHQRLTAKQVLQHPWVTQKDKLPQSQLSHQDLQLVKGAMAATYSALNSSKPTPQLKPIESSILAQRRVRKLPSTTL

RAC-gamma serine/threonine-protein kinase, sequence (Q9Y243 whole entry): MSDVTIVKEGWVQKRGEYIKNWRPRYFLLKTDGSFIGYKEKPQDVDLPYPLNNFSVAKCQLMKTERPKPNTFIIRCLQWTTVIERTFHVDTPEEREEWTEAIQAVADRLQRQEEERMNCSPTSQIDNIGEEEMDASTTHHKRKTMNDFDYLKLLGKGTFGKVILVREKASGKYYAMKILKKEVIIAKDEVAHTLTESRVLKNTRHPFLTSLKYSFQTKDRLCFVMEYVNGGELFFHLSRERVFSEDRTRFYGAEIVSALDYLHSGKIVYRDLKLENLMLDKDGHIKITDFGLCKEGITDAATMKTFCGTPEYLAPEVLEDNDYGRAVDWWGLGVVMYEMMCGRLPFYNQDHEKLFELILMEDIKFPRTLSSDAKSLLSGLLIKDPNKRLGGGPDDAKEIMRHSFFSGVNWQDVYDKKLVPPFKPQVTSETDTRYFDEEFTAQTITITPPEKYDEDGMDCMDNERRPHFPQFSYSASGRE

In the case of `CN(C)C/C=C/C(=O)Nc1ccc(C(=O)N2CCCC(Nc3ncc(Cl)c(-c4c[nH]c5ccccc45)n3)C2)cc1` (stereo unspecified), the % of control in assay [1] amounted to 88%.
`CNC(=O)Nc1ccc(-c2nc(N3CC4CCC(C3)O4)c3cnn(C4CCC5(CC4)OCCO5)c3n2)cc1` returned a % of control in [2] of 88%.
In the case of `Nc1cnc(N2CCc3cc(S(=O)(=O)Nc4c(F)cc(Cl)cc4F)cc(N4CCCC4=O)c32)nc1` [TP-020n], the results for the % of control in assay [3] and in [4] were 86% and 97%, respectively.
As for `CN1Cc2nccc(-c3cn(C)nc3-c3ccc(F)cc3)c2C1=O`, the % of inhibition in assay [5] was -1%.
For `CN(C)C(=O)Cn1cc(-c2ccc(-c3cncc4ccccc34)cc2)cn1`, the % of control in assay [6] turned out to be 53%.
In the case of `CC[C@@H]1[C@H](F)C(=O)N[C@@H]1COc1nccc2cc(C(N)=O)c(OC)cc12` [ZIMLOVISERTIB], the % of inhibition in assay [7] stood at 17.6%.
`CCN(CC)CCCCNc1ncc2cc(-c3cc(OC)cc(OC)c3)c(NC(=O)NC(C)(C)C)nc2n1`: the % of control in assay [8] was determined as 100%.
Compound `COc1cc(Nc2nc(C)cc(-c3cnn4nc(OC)ccc34)n2)cc(C(F)(F)F)c1` displayed a % of control in [9] of 96%.
With `CN(C(=O)c1cnn2cccnc12)c1cc2c(cc1N1CCOCC1)C(=O)N(C[C@@H](F)C(C)(C)O)C2`, in assay [10], the dTM is -0.2 K.
Take `Cc1ccc(-c2ccc3c(ccc4sc5c(c43)NC[C@@H](C)NC5=O)n2)cn1`: the % of inhibition in assay [11] stood at 17%.
